In ChEMBL document CHEMBL4138253, “Synthesis and Biological Evaluation of a Series of Bile Acid Derivatives as FXR Agonists for Treatment of NASH” (ACS Med Chem Lett, 2017):

Assays:
[1] = Drug level in C57BL/6 mouse liver at 2 mg/kg, po administered as single cassette dose via gavage measured at 3 hrs post dose by LC-MS/MS analysis; format: ADME, organism-based; details: in vivo
[2] = Drug level in C57BL/6 mouse liver at 2 mg/kg, po administered as single cassette dose via gavage measured at 0.5 hrs post dose by LC-MS/MS analysis; format: ADME, organism-based; details: in vivo
[3] = Ratio of drug level in liver to plasma in C57BL/6 mouse at 2 mg/kg, po administered as single cassette dose via gavage measured at 0.5 hrs post dose; format: ADME, organism-based
[4] = target: T1, G-protein coupled bile acid receptor 1 (Homo sapiens, UniProt Q8TDU6); test: Agonist activity at human TGR5 expressed in HEK293 cells assessed as increase in intracellular cAMP level after 1 hr by TR-FRET assay; format: functional, cell-based
T1 sequence (Q8TDU6 whole entry): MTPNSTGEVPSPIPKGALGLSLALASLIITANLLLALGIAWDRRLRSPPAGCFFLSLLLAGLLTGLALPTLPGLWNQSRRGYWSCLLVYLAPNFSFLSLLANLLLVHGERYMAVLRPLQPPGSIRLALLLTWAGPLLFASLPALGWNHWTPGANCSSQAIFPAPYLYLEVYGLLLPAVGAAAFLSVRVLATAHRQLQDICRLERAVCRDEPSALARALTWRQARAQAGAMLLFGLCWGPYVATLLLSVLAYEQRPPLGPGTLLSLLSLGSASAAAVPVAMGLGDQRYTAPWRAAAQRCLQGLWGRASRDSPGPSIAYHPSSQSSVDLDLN

Bile acid receptor [5] = target: T2, Bile acid receptor (Homo sapiens, UniProt Q96RI1); test: Agonist activity at recombinant human GST-tagged FXR LBD (193 to 472 residues) expressed in baculovirus-infected insect cells assessed as recruitment of biotinylated SRC1 peptide measured after 1 hr by Alphascreen assay
T2 sequence (Q96RI1 whole entry): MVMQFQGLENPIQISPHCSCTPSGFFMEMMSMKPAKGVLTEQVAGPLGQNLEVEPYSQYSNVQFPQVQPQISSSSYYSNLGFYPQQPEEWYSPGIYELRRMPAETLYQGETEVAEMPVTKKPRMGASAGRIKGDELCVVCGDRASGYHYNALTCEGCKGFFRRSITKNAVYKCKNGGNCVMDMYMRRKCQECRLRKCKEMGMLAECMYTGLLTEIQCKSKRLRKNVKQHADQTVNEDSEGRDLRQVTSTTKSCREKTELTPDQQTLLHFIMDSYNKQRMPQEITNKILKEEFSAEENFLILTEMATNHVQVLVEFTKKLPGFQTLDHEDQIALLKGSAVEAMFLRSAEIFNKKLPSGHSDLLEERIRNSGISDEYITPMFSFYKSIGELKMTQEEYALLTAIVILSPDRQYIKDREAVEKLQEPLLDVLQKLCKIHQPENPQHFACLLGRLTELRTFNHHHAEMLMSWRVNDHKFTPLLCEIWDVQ

[6] = Drug level in C57BL/6 mouse plasma at 2 mg/kg, po administered as single dose via gavage measured at 0.5 hrs post dose by LC-MS/MS analysis; format: ADME, organism-based
[7] = Drug level in C57BL/6 mouse plasma at 2 mg/kg, po administered as single cassette dose via gavage measured at 3 hrs post dose by LC-MS/MS analysis; format: ADME, organism-based
[8] = Ratio of drug level in liver to plasma in C57BL/6 mouse at 2 mg/kg, po administered as single cassette dose via gavage measured at 3 hrs post dose; format: ADME, organism-based
[9] = Drug level in C57BL/6 mouse plasma at 10 mg/kg, po administered as single dose via gavage measured at 0.5 hrs post dose by LC-MS/MS analysis; format: ADME, organism-based
Mus musculus [10] = test: Cmax in C57BL/6 mouse assessed as tauro-INT-747 level at 10 mg/kg, po administered via gavage; format: ADME, organism-based; set-up: dose 10 mg/kg, route oral; details: in vivo
[11] = AUC in C57BL/6 mouse at 10 mg/kg, po administered via gavage; format: ADME, organism-based; details: in vivo
Mus musculus [12] = test: Tmax in C57BL/6 mouse assessed as tauro-INT-747 level at 10 mg/kg, po administered via gavage; format: ADME, organism-based; details: in vivo
Mus musculus [13] = test: Anti-hepatic steatosis activity in HFD/CCl4-induced non-alcoholic hepatic steatosis C57BL/6 mouse model assessed as reduction in triglyceride level at 30 mg/kg, po administered once daily via gavage for 28 days measured at post last dose by […] assay; format: ADME, organism-based; details: in vivo, 672 h
Mus musculus [14] = test: AUC in C57BL/6 mouse assessed as glyco-INT-747 level at 10 mg/kg, po administered via gavage; format: ADME, organism-based; details: in vivo, BLD = below limit of detection
[15] = Drug level in C57BL/6 mouse liver at 10 mg/kg, po administered as single dose via gavage measured at 3 hrs post dose by LC-MS/MS analysis; format: ADME, organism-based; details: in vivo
[16] = Tmax in C57BL/6 mouse at 10 mg/kg, po administered via gavage; format: ADME, organism-based; details: in vivo
Mus musculus [17] = test: AUC in C57BL/6 mouse assessed as tauro-INT-747 level at 10 mg/kg, po administered via gavage; format: ADME, organism-based; details: in vivo
[18] = Cmax in C57BL/6 mouse at 10 mg/kg, po administered via gavage; format: ADME, organism-based; set-up: dose 10 mg/kg, route oral; details: in vivo
[19] = Drug level in C57BL/6 mouse liver at 10 mg/kg, po administered as single dose via gavage measured at 0.5 hrs post dose by LC-MS/MS analysis; format: ADME, organism-based; details: in vivo
Mus musculus [20] = test: Anti-hepatic steatosis activity in HFD/CCl4-induced non-alcoholic hepatic steatosis C57BL/6 mouse model assessed as reduction in hepatic steatosis score at 30 mg/kg, po administered once daily via gavage for 28 days measured at post last dose by hematoxylin-eosin staining based assay; format: ADME, organism-based; details: in vivo, 672 h
Mus musculus [21] = test: Anti-hepatic steatosis activity in HFD/CCl4-induced non-alcoholic hepatic steatosis C57BL/6 mouse model assessed as reduction in liver fibrosis at 30 mg/kg, po administered once daily via gavage for 28 days measured at post last dose by sirus red staining based assay; format: ADME, organism-based; details: in vivo, 672 h
Mus musculus [22] = test: Cmax in C57BL/6 mouse assessed as glyco-INT-747 level at 10 mg/kg, po administered via gavage; format: ADME, organism-based; set-up: dose 10 mg/kg, route oral; details: in vivo, BLD = below limit of detection
[23] = Drug level in C57BL/6 mouse plasma at 10 mg/kg, po administered as single dose via gavage measured at 3 hrs post dose by LC-MS/MS analysis; format: ADME, organism-based
[24] = target: T3, Bile acid receptor (Homo sapiens) (UniProt Q96RI1); test: (§1) Agonist activity at human FXR assessed as recruitment of SRC1 peptide by TR-FRET assay
T3 sequence (whole entry): T2 sequence (Q96RI1 whole entry)

Bile acid receptor [25] = target: T2, Bile acid receptor; test: as §1

`CC[C@H]1[C@@H](O)[C@@H]2[C@H](CC[C@]3(C)[C@@H]([C@H](C)CCc4nnn[nH]4)CC[C@@H]23)[C@@]2(C)CC[C@@H](O)C[C@@H]12` showed a Drug uptake [1] of 1443 nmol/kg, a Drug uptake [2] of 5693 nmol/kg and a Kp at 0.5 h [3] of 7. The EC50 [4] was 1770 nM, the EC50 (Bile acid receptor [5]) was 60 nM and the concentration at 0.5 h [6] was 868 nM. For the same compound, the concentration at 3 h [7] was 19 nM and the Kp at 3 h [8] was 76.

Compound `CC[C@H]1[C@@H](O)[C@@H]2[C@H](CC[C@]3(C)[C@@H]([C@H](C)CCC(=O)O)CC[C@@H]23)[C@@]2(C)CC[C@@H](O)C[C@@H]12` [OBETICHOLIC ACID] has a Drug uptake [1] of 625 nmol/kg, a Drug uptake [2] of 711 nmol/kg and a concentration at 0.5 h [9] of 478 nM. For the same compound, the Cmax (Mus musculus [10]) was 838 nM, the concentration at 0.5 h [6] was 151 nM and the AUC [11] was 0.713 µM·h. The Tmax (Mus musculus [12]) was 480 min, the Activity (Mus musculus [13]) was “Active” and the AUC (Mus musculus [14]) was “Bld”. It also gave a concentration at 3 h [7] of 64 nM, a Drug uptake [15] of 111 nmol/kg and a Tmax [16] of 15 min. It also gave an AUC (Mus musculus [17]) of 18.059 µM·h, a Cmax [18] of 1540 nM and a Drug uptake [19] of 1723 nmol/kg. For the same compound, the Activity (Mus musculus [20]) was “Active”, the Activity (Mus musculus [21]) was “Active” and the Cmax (Mus musculus [22]) was “Bld”. For the same compound, the concentration at 3 h [23] was 10 nM.

For `C[C@H](CCn1oc(=O)[nH]c1=O)[C@H]1CC[C@H]2[C@@H]3[C@H](O)C[C@@H]4C[C@H](O)CC[C@]4(C)[C@H]3CC[C@]12C`, the Efficacy [24] was 111% and the EC50 (Bile acid receptor [25]) was 1220 nM.
